From patent US7235536B2, “Cellulose sulfate and other sulfated polysaccharides to prevent and treat papilloma virus infection and other infections” (Rush Presbyterian-St. Luke's Medical Center, priority 2000, dated 2007)

How the values were obtained:
[1] = system: human papilloma virus-like particles (VLP's); conditions: Joyce et al. 1999; cited from earlier work
[2] = system: BPV-1; experiment: BPV-1 focus-forming assay, cells pre-incubated with compound and washed before virus (Table D); type: cell-based, bovine papilloma virus; conditions: for Average ± standard deviation (foci/well): C127-D10 cells, washed before virus
Protocol: Microbicidal activity of compounds was also tested by pre-incubation of cells with compounds followed by addition of virus to compound-coated C127 cells. In these experiments, dilutions of compounds were added to cultures of C127 cells, incubated for 1 hr at 37° C., washed 3 times with media to remove unbound compound, prior to addition of approximately 100 focus-forming units of BPV-1. The cultures were incubated for an additional hour, washed three times to remove unbound virus, then the incubation was continued for two weeks with media changes every 3-4 days and foci counted as described above.
Pre-incubation of C127-D10 cells with compounds prior to addition of BPV-1 was tested to determine whether the microbicidal effects of CS and DS extended to a blockage of virus interaction with cell surfaces. In these experiments, titrations of compounds were added to cell cultures followed by washing away unbound reagent prior to addition of virus. After a one-hour incubation with virus, unbound virus was removed by washing and the cultures monitored for foci after two weeks.

[3] = system: HPV-11; experiment: RT-PCR ELISA for transient infection of human A431 cells, HPV-11; type: cell-based, human papilloma virus; conditions: with virus (HPV-11)
Protocol: (§1) Cellulose sulfate and dextran sulfate were each prepared as a 2 mg/ml solution in 0.9% NaCl and tested for microbicidal activity using the in vitro HPV transient infection assay originally described by Smith and colleagues (Smith, L. H., C. Foster, M. E. Hitchcock, and R. Isseroff. 1993. In vitro HPV-11 infection of human foreskin. J. Invest. Dermatol. 101:292-295) with some modifications (Ludmerer, S. W., W. L. McClements, X. M. Wang, J. C. Ling, K. U. Jansen, and N. D. Christensen. 2000. HPV11 mutant virus-like parties elicit immune responses that neutralize virus and delineate a novel neutralizing domain. Virology 266:237-245). An ELISA-based read-out of Optical Density (OD) values using alkaline phosphatase cleavage of the substrate p-nitrophenyl phosphate was also used to measure HPV infection as described below.
(§2) A modification of the RT-PCR assay that incorporates an ELISA-based read-out (Boehringer-Mannheim) was also included to assess microbicidal activity. Replicate cell cultures of A431 cells were infected with an aliquot of infectious HPV virions as described above. After 4 days of culture, cells were harvested and RNA extracted. RNA was subjected to RT using downstream anti-sense (reverse) primers for HPV-11 or HPV-40 and β-actin (as a control/housekeeping cellular transcript) to initiate cDNA synthesis. The cDNA was processed through 2 sets of 30 cycles of PCR amplification using nested primers: the second set of cycles used digoxygenin (DIG)-dUTP to label the PCR products with DIG. DIG-labeled PCR products were denatured then renatured together with a biotinylated oligonucleotide specific for the targeted PCR product. Biotinylated products were detected in ELISA with plates coated with streptavidin (to capture the biotinylated target PCR product) then anti-DIG antibody and substrate. Labeled PCR products were added directly to ELISA plates, or titrated at 10-fold dilutions in duplicate for each cell culture for each virus dilution.

[4] = system: BPV-1; experiment: BPV-1 focus-forming assay, virus preincubated with compound (Table C); type: cell-based, bovine papilloma virus; conditions: C127 cell line
Protocol: In a similar study using the BPV-1 focus forming assay, the effect of the cellulose sulfate and dextran sulfate on BPV was tested. In this study, cellulose sulfate tested was as described above. Dextran sulfate used was from Dextran Products Limited (Lot DSM-122) prepared using dextan of average Mr of about 500,000 (based on viscosity) and is estimated to have a final average Mr greater than about 500,000 and may be about 1 to 1.1 million.
Microbicidal activity of the compounds was tested using the well-characterized BPV-1 focus-forming assay (Dvoretzky, I., R. Shober, S. K. Chattopadhyay, and D. R. Lowy. 1980. A quantitative in vitro focus assay for bovine papilloma virus. Virology 103:369-375), with modifications for microbicide testing (Hermonat, P. L., (1992) supra; Howett, M. K., et al. (1999) supra. The terms inhibiting or microbicidal activity when used are intended to refer broadly to microbe infection and/or microbe inactivating effect.
Aliquots of BPV-1 containing approximately 100-200 focus-forming units were preincubated with dilutions of compounds for 10 min at 37° C. prior to addition to cultures of mouse C127 cells. Cultures of C127 cells were set up in T25 tissue culture flasks (Corning, N.Y.), containing 3×10^5 cells per flask. Virus-compound mixtures in a total of 50 μl were then added to flasks in 1 ml of media, and an additional 3 ml of media added after 24 hrs culture. Media was changed every 3-4 days for a period of 2 weeks. Foci were enumerated following staining of the monolayer with crystal violet and counting stained foci microscopically. Each concentration of compound was tested in duplicate, and the mean±SD of foci number for the preincubation virus-drug concentration for each compound is shown below as Table C.
Clones were derived from the parental C127 cell line because of the consistent failure of BPV-1 to induce foci following several cell passages of the uncloned parental cell line. One clone, labeled C127-D10, which produced foci upon BPV-1 infection, was chosen for a repeat testing of the compounds. When this clone was tested for microbicidal activity, less compound was required to achieve high reduction in BPV-1-induced foci when compared to the uncloned parental-C127 cells.

[5] = system: HPV-40; experiment: RT-PCR ELISA for transient infection of human A431 cells, HPV-40; type: cell-based, human papilloma virus; conditions: with virus (HPV-40)
Protocol: as §1
The RT-PCR assay to detect HPV-40 infection was designed similarly for the detection of HPV-11 infection as described above.
as §2
The microbicidal activity was assessed either as the detection of ethidium stained PCR products or as an ELISA-based read-out as described above. […] An initial experiment was conducted to test the specificity of the ELISA-based RT-PCR assay using HPV-11 and HPV-40 infection of A431 cells (Table E).

[6] = system: papillomaviruses; conditions: literature; cited from earlier work
[7] = 100 μg/ml at viral pretreatment

Row | Substance | binding of VLP's to HaCaT cells [1] | Average ± standard deviation (foci/well) ([2]; 10 μg/ml) | reduction of BPV-1-induced foci ([2]; 10 μg/ml, cells pre-treated, washed) | Average ± standard deviation (foci/well) ([2]; 100 μg/ml) | Average ± standard deviation (foci/well) ([2]; 1,000 μg/ml) | Average ± standard deviation (foci/well) ([2]; 10,000 μg/ml) | Mean (SD) of O.D. reading for RT-PCR ELISA, HPV-11 probe ([3]; 10 μg/ml at viral pretreatment) | Mean (SD) of O.D. reading for RT-PCR ELISA, HPV-11 probe [3, 7] | inhibition of papilloma virus infectivity ([4]; 100 μg/ml) | inhibition of papilloma virus infectivity ([4]; 1 mg/ml) | Mean (SD) of O.D. reading for RT-PCR ELISA, HPV-40 probe ([5]; 10 μg/ml at viral pretreatment) | Mean (SD) of O.D. reading for RT-PCR ELISA, HPV-40 probe [5, 7] | Mean (SD) of O.D. reading for RT-PCR ELISA, HPV-40 probe ([5]; 1000 μg/ml at viral pretreatment) | microbicidal activity against papillomaviruses [6]
1 | Dextran sulfate | inhibited | 31 ± 16.9 foci/well | substantial reduction in foci | 15 ± 4.6 foci/well | 4 ± 2.6 foci/well | 0 foci/well | 0.023 (0.000) O.D. | 0.035 (0.000) O.D. | moderate inhibition | very high inhibition | 0.042 (0.007) O.D. | 0.375 (0.073) O.D. | 0.006 (0.007) O.D. | 
2 | heparin [reference compound] | inhibited |  |  |  |  |  |  |  |  |  |  |  |  | 
3 | nonoxynol-9 |  |  |  |  |  |  |  |  |  |  |  |  |  | ineffective
